20 molecules from patent US10189845B2, “4,6-substituted-pyrazolo[1,5-a]pyrazines as janus kinase inhibitors” (ARRAY BIOPHARMA INC., priority 2014, dated 2019) can be followed below.

Counter-ions that a name gives are not always drawn. Like-named read-outs stand apart in the source and are kept apart here.

Common to all, as to assay type: biochemical
One assay addresses JAK2 (Homo sapiens (Human), UniProt O60674). Briefly: JAK2 Inhibition Assay (Example C, Omnia kinase fluorescence peptide substrate assay). The following applies: JAK2 Enzyme IC50 1 mM ATP, averaged IC50 ranges. Summed up:
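4 nM JAK2 with 1 mM ATP and 10 μM Omnia Y7 peptide in 25 mM HEPES pH 7.4, 10 mM MgCl2, 0.01% Triton X-100, 1 mM DTT, 2% DMSO. Sox fluorescence (ex 360/em 485 nm) read every 50 s for 45 min; IC50 from 4-parameter fit of percent of control.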

A further assay deals with JAK1 (Homo sapiens (Human), UniProt P23458). Briefly: JAK1 Inhibition Assay (Example B, Omnia kinase fluorescence peptide substrate assay). Summed up: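 Recombinant human JAK1 (12.5 nM) with 1 mM ATP and 8 μM Omnia Y12 Sox-peptide in 25 mM HEPES pH 7.4, 10 mM MgCl2, 0.01% Triton X-100, 1 mM DTT, 2% DMSO final. Phosphorylation read kinetically (ex 360/em 485 nm, 45 min); IC50 from 4-parameter fit of percent of control.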

The target of a further assay is JAK3 (Homo sapiens (Human), UniProt P52333). Briefly: JAK3 Inhibition Assay (Example D, Omnia kinase fluorescence peptide substrate assay). A digest of the protocol:
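Mixture held 2 nM JAK3, 1 mM ATP and 10 μM Omnia Y7 peptide in 25 mM HEPES pH 7.4, 10 mM MgCl2, 0.01% Triton X-100, 1 mM DTT, 2% DMSO final. Sox fluorescence (ex 360/em 485 nm) was read every 50 s for 45 min. IC50 came from a 4-parameter logistic fit of percent of control.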

The target of a further assay is Human Tyk2 kinase domain (Homo sapiens (Human), UniProt P29597). In words: Tyk2 Inhibition Assay (Example A, Omnia kinase fluorescence peptide substrate assay). The following applies: TYK2 Enzyme IC50 1 mM ATP, averaged IC50 ranges. Summed up: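 Omnia Sox-peptide kinetic fluorescence assay (ex 360/em 485 nm, read every 50 s for 45 min) with 1 nM human Tyk2 kinase domain (aa 886–1187, His tag cleaved, baculovirus-expressed), 1 mM ATP, 8 μM Omnia Y12 peptide, in 25 mM HEPES pH 7.4, 10 mM MgCl2, 0.01% Triton X-100, 1 mM DTT, 2% DMSO. IC50 from 4-parameter logistic fit of percent of control.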

Where [1] appears, read: JAK1 Enzyme IC50 1 mM ATP, 1 mM ATP, averaged IC50 ranges.

JAK1, sequence (P23458 whole entry): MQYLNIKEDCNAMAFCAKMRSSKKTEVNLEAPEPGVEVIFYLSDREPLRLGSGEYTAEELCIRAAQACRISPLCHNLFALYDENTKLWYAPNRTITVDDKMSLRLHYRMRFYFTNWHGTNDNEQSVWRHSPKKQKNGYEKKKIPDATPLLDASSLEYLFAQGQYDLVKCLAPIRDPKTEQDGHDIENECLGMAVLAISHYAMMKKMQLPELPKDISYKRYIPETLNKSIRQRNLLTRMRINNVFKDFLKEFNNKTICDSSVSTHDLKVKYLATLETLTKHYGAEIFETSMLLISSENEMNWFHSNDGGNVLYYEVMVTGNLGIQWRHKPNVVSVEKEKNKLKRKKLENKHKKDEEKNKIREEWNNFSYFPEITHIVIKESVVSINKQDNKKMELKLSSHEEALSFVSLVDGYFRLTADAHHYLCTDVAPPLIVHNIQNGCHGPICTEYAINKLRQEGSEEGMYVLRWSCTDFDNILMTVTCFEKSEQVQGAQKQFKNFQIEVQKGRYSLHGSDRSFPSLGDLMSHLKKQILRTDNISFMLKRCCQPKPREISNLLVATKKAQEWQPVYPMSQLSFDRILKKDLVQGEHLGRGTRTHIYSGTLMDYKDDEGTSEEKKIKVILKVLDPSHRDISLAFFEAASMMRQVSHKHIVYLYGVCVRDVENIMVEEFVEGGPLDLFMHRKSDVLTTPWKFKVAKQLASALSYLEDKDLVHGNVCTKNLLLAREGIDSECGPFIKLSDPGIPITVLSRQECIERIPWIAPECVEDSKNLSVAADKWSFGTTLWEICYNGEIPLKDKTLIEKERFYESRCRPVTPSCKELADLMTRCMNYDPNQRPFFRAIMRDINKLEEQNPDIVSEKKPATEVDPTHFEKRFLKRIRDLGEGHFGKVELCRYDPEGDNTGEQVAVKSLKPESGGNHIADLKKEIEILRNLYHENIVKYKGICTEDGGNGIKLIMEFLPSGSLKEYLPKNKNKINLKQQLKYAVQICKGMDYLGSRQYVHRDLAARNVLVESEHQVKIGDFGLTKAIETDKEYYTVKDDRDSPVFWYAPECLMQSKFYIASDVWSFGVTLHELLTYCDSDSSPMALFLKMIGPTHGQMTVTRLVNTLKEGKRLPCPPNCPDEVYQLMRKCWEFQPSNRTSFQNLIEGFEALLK
JAK3, sequence (P52333 whole entry): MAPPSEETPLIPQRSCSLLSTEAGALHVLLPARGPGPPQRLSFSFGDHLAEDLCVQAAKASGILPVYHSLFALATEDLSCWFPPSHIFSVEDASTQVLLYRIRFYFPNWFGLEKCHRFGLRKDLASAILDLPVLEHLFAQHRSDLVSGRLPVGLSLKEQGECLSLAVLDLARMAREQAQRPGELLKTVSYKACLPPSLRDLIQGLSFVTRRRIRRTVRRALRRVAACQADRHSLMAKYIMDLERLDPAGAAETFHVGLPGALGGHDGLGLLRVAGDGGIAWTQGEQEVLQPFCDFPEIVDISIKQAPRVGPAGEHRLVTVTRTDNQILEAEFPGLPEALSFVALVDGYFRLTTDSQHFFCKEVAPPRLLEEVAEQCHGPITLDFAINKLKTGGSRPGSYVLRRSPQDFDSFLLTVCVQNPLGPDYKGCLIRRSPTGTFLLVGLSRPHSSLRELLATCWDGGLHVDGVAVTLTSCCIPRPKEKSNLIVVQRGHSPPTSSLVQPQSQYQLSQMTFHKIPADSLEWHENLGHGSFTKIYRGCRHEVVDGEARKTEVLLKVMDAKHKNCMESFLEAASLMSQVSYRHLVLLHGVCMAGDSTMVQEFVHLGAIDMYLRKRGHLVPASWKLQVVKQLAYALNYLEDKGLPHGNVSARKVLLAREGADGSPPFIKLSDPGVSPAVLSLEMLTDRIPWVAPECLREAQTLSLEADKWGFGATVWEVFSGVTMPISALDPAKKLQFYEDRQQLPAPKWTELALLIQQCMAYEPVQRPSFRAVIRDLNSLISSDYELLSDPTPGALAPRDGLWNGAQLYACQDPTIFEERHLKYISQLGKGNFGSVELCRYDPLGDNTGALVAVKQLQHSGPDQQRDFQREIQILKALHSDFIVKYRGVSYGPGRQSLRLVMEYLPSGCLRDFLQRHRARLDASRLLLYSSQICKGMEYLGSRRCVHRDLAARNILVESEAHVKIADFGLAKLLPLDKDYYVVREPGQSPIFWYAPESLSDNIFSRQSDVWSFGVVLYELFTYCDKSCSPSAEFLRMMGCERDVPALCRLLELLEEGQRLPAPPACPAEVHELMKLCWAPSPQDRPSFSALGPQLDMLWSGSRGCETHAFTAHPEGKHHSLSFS
JAK2, sequence (O60674 whole entry): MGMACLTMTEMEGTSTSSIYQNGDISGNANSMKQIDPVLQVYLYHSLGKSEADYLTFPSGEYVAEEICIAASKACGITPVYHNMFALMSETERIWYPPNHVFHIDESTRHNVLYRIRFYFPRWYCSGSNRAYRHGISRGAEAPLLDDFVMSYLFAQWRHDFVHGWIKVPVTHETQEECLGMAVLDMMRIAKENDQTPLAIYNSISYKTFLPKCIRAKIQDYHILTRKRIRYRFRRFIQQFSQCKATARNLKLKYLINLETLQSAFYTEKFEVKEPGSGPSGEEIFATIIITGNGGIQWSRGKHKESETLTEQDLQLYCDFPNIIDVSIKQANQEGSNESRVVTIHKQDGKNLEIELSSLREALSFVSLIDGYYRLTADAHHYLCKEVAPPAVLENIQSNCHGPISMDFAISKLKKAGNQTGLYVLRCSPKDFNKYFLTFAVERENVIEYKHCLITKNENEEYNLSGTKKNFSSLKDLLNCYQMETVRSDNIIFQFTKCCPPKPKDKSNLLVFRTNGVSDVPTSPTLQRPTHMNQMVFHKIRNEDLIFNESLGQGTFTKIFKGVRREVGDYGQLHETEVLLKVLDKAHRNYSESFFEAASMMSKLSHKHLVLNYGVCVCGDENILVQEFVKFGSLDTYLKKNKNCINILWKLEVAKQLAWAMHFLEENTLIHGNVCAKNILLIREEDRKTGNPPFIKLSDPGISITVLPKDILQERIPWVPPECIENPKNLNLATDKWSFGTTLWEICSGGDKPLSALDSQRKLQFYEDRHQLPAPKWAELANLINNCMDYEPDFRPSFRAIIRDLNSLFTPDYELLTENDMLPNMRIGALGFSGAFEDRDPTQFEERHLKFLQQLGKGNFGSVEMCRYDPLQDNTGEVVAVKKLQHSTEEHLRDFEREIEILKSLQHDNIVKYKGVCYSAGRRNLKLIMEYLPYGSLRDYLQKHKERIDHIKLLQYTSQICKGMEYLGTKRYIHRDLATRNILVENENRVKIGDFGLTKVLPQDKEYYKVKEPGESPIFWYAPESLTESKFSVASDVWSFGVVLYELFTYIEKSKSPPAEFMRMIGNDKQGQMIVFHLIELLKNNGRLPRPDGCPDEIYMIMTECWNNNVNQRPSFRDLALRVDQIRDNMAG
Human Tyk2 kinase domain, sequence (P29597 886-1187): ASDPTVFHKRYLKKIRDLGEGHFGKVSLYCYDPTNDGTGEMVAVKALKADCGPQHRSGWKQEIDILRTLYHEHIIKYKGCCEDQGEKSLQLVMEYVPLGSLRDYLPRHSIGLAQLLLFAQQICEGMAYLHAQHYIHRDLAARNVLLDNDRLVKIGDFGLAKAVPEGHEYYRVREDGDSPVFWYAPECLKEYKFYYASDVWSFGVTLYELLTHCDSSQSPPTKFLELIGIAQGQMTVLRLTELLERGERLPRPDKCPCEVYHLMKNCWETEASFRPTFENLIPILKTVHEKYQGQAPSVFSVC

As for `CCC(CC)n1cc(-c2nc(-c3cnn(CC[C@H](O)CO)c3)cn3nccc23)cn1` [Example 62, (S)-4-(4-(4-(1-(pentan-3-yl)-1H-pyrazol-4-yl)pyrazolo[1,5-a]pyrazin-6-yl)-1H-pyrazol-1-yl)butane-1,2-diol], the IC50 – broadly, the concentration at which inhibition is half-maximal – was 10 to 100 nM at JAK2, 100 to 1000 nM against JAK1 (setting [1]), 1000 to 10000 nM at JAK3 and 10 to 100 nM against Human Tyk2 kinase domain.

In the case of `CCC(CC)n1cc(-c2nc(-c3cnn(CC(O)CCO)c3)cn3nccc23)cn1` (centres unmarked) [Example 63, 4-(4-(4-(1-(pentan-3-yl)-1H-pyrazol-4-yl)pyrazolo[1,5-a]pyrazin-6-yl)-1H-pyrazol-1-yl)butane-1,3-diol], the 50% inhibitory concentration (IC50) against JAK2 lay within 10 to 100 nM; against JAK1, 100 to 1000 nM; against JAK3 it was 1000 to 10000 nM; against Human Tyk2 kinase domain, 10 to 100 nM.

Take `CCC(CC)n1cc(-c2nc(-c3cnn(CC[C@@H](O)CO)c3)cn3nccc23)cn1` [Example 64, (R)-4-(4-(4-(1-(pentan-3-yl)-1H-pyrazol-4-yl)pyrazolo[1,5-a]pyrazin-6-yl)-1H-pyrazol-1-yl)butane-1,2-diol]: the half-inhibitory concentration (IC50) against JAK2 lay within 10 to 100 nM; on JAK1 (setting [1]) it was 100 to 1000 nM; on JAK3 it was 1000 to 10000 nM; on Human Tyk2 kinase domain, 10 to 100 nM.

Consider `CCC(CC)n1cc(-c2nc(-c3cnn(C[C@H](O)[C@H](C)O)c3)cn3nccc23)cn1` [Example 65, (2S,3S)-1-(4-(4-(1-(pentan-3-yl)-1H-pyrazol-4-yl)pyrazolo[1,5-a]pyrazin-6-yl)-1H-pyrazol-1-yl)butane-2,3-diol], for which the half-inhibitory concentration (IC50) was 10 to 100 nM at JAK2, 100 to 1000 nM against JAK1 (setting [1]), 1000 to 10000 nM at JAK3 and 10 to 100 nM on Human Tyk2 kinase domain.

For `CCC(c1ccccc1)n1cc(-c2nc(-c3cnn(C[C@@H](O)CO)c3)cn3nccc23)cn1` (stereo partly drawn) [Example 66, (2R)-3-(4-(4-(1-(1-phenylpropyl)-1H-pyrazol-4-yl)pyrazolo[1,5-a]pyrazin-6-yl)-1H-pyrazol-1-yl)propane-1,2-diol], the concentration for half-maximal inhibition (IC50) lay within 10 to 100 nM at JAK2, 10 to 100 nM at JAK1 (setting [1]), 100 to 1000 nM against JAK3 and 10 to 100 nM at Human Tyk2 kinase domain.

On to `CCC(C)n1cc(-c2nc(-c3cnn(C[C@@H](O)CO)c3)cn3nccc23)cn1` (stereo partly drawn) [Example 67, (2R)-3-(4-(4-(1-(sec-butyl)-1H-pyrazol-4-yl)pyrazolo[1,5-a]pyrazin-6-yl)-1H-pyrazol-1-yl)propane-1,2-diol], for which the IC50 against JAK2 is 10 to 100 nM; against JAK1 (setting [1]) it was 100 to 1000 nM; at JAK3 it was 100 to 1000 nM; on Human Tyk2 kinase domain, 100 to 1000 nM.

`CC[C@H](C)n1cc(-c2nc(-c3cnn(C[C@@H](O)CO)c3)cn3nccc23)cn1` [Example 68, (R)-3-(4-(4-(1-((S)-sec-butyl)-1H-pyrazol-4-yl)pyrazolo[1,5-a]pyrazin-6-yl)-1H-pyrazol-1-yl)propane-1,2-diol]: the concentration for half-maximal inhibition (IC50) is 10 to 100 nM at JAK2, 100 to 1000 nM against JAK1 (setting [1]), 1000 to 10000 nM against JAK3 and 10 to 100 nM on Human Tyk2 kinase domain.

For `CC[C@@H](C)n1cc(-c2nc(-c3cnn(C[C@@H](O)CO)c3)cn3nccc23)cn1` [Example 69, (R)-3-(4-(4-(1-((R)-sec-butyl)-1H-pyrazol-4-yl)pyrazolo[1,5-a]pyrazin-6-yl)-1H-pyrazol-1-yl)propane-1,2-diol], the half-maximal inhibitory concentration (IC50) against JAK2 lay in the range of 100 to 1000 nM; on JAK1 (setting [1]), 1000 to 10000 nM; against JAK3, 1000 to 10000 nM; against Human Tyk2 kinase domain it was 100 to 1000 nM.

Turning to `CC[C@H](C)n1cc(-c2nc(-c3cnn(C[C@H](O)CO)c3)cn3nccc23)cn1` [Example 70, (S)-3-(4-(4-(1-((S)-sec-butyl)-1H-pyrazol-4-yl)pyrazolo[1,5-a]pyrazin-6-yl)-1H-pyrazol-1-yl)propane-1,2-diol hydrochloride], the IC50 against JAK2 was 10 to 100 nM; against JAK1, 100 to 1000 nM; against JAK3, 1000 to 10000 nM; on Human Tyk2 kinase domain, 10 to 100 nM.

`CC[C@@H](C)n1cc(-c2nc(-c3cnn(C[C@H](O)CO)c3)cn3nccc23)cn1` [Example 71, (S)-3-(4-(4-(1-((R)-sec-butyl)-1H-pyrazol-4-yl)pyrazolo[1,5-a]pyrazin-6-yl)-1H-pyrazol-1-yl)propane-1,2-diol]: the concentration for half-maximal inhibition (IC50) against JAK2 lay in the range of 100 to 1000 nM; against JAK1 (setting [1]), 1000 to 10000 nM; against JAK3, 1000 to 10000 nM; on Human Tyk2 kinase domain, 100 to 1000 nM.

On to `CCC[C@H](C)n1cc(-c2nc(-c3cnn(C[C@@H](O)CO)c3)cn3nccc23)cn1` [Example 72, (R)-3-(4-(4-(1-((S)-pentan-2-yl)-1H-pyrazol-4-yl)pyrazolo[1,5-a]pyrazin-6-yl)-1H-pyrazol-1-yl)propane-1,2-diol], for which the IC50 was 100 to 1000 nM against JAK2, 100 to 1000 nM on JAK1 (setting [1]), 1000 to 10000 nM at JAK3 and 100 to 1000 nM against Human Tyk2 kinase domain.

For `CCC[C@@H](C)n1cc(-c2nc(-c3cnn(C[C@@H](O)CO)c3)cn3nccc23)cn1` [Example 73, (R)-3-(4-(4-(1-((R)-pentan-2-yl)-1H-pyrazol-4-yl)pyrazolo[1,5-a]pyrazin-6-yl)-1H-pyrazol-1-yl)propane-1,2-diol], the concentration for half-maximal inhibition (IC50) against JAK2 is 10 to 100 nM; at JAK1 (setting [1]) it was 1000 to 10000 nM; at JAK3 it was 1000 to 10000 nM; against Human Tyk2 kinase domain, 10 to 100 nM.

Take `CCC[C@@H](C)n1cc(-c2nc(-c3cnn(C[C@H](O)CO)c3)cn3nccc23)cn1` [Example 74, (S)-3-(4-(4-(1-((R)-pentan-2-yl)-1H-pyrazol-4-yl)pyrazolo[1,5-a]pyrazin-6-yl)-1H-pyrazol-1-yl)propane-1,2-diol]: the IC50 against JAK2 is 100 to 1000 nM; at JAK1 (setting [1]), 1000 to 10000 nM; against JAK3, 1000 to 10000 nM; against Human Tyk2 kinase domain it was 10 to 100 nM.

Consider `CC(C)C[C@H](C)n1cc(-c2nc(-c3cnn(C[C@@H](O)CO)c3)cn3nccc23)cn1` [Example 75, (R)-3-(4-(4-(1-((S)-4-methylpentan-2-yl)-1H-pyrazol-4-yl)pyrazolo[1,5-a]pyrazin-6-yl)-1H-pyrazol-1-yl)propane-1,2-diol], for which the IC50 was in the range of 100 to 1000 nM against JAK2, 1000 to 10000 nM on JAK1 (setting [1]), 1000 to 10000 nM against JAK3 and 100 to 1000 nM against Human Tyk2 kinase domain.

Turning to `CC(C)C[C@H](C)n1cc(-c2nc(-c3cnn(C[C@H](O)CO)c3)cn3nccc23)cn1` [Example 76, (S)-3-(4-(4-(1-((S)-4-methylpentan-2-yl)-1H-pyrazol-4-yl)pyrazolo[1,5-a]pyrazin-6-yl)-1H-pyrazol-1-yl)propane-1,2-diol], the IC50 lay within 100 to 1000 nM at JAK2, 1000 to 10000 nM on JAK1 (setting [1]), 1000 to 10000 nM on JAK3 and 100 to 1000 nM at Human Tyk2 kinase domain.

Take `CC(C)C[C@@H](C)n1cc(-c2nc(-c3cnn(C[C@@H](O)CO)c3)cn3nccc23)cn1` [Example 77, (R)-3-(4-(4-(1-((R)-4-methylpentan-2-yl)-1H-pyrazol-4-yl)pyrazolo[1,5-a]pyrazin-6-yl)-1H-pyrazol-1-yl)propane-1,2-diol]: the IC50 fell in the range of 100 to 1000 nM against JAK2, 1000 to 10000 nM against JAK1 (setting [1]), 1000 to 10000 nM against JAK3 and 100 to 1000 nM against Human Tyk2 kinase domain.

As to `CC(C)C[C@@H](C)n1cc(-c2nc(-c3cnn(C[C@H](O)CO)c3)cn3nccc23)cn1` [Example 78, (S)-3-(4-(4-(1-((R)-4-methylpentan-2-yl)-1H-pyrazol-4-yl)pyrazolo[1,5-a]pyrazin-6-yl)-1H-pyrazol-1-yl)propane-1,2-diol], the IC50 was 100 to 1000 nM at JAK2, 1000 to 10000 nM on JAK1 (setting [1]), 1000 to 10000 nM on JAK3 and 100 to 1000 nM against Human Tyk2 kinase domain.

For the molecule `CCC(C1CC(F)(F)C1)n1cc(-c2nc(-c3cnn(C[C@@H](O)CO)c3)cn3nccc23)cn1` (stereo partly drawn) [Example 79, (2R)-3-(4-(4-(1-(1-(3,3-difluorocyclobutyl)propyl)-1H-pyrazol-4-yl)pyrazolo[1,5-a]pyrazin-6-yl)-1H-pyrazol-1-yl)propane-1,2-diol], the IC50 on JAK2 is 10 to 100 nM; at JAK1, 10 to 100 nM; against JAK3 it was 1000 to 10000 nM; on Human Tyk2 kinase domain it was 10 to 100 nM.

Turning to `CCC(CC)n1cc(-c2nc(-c3cnn(C(CO)CO)c3)cn3nccc23)cn1` [Example 81, 2-(4-(4-(1-(pentan-3-yl)-1H-pyrazol-4-yl)pyrazolo[1,5-a]pyrazin-6-yl)-1H-pyrazol-1-yl)propane-1,3-diol], the IC50 lay in the range of 10 to 100 nM at JAK2, 100 to 1000 nM at JAK1, 1000 to 10000 nM against JAK3 and 10 to 100 nM on Human Tyk2 kinase domain.

Consider `CCC[C@H](C)n1cc(-c2nc(-c3cnn(C(CO)CO)c3)cn3nccc23)cn1` [Example 82, (S)-2-(4-(4-(1-(pentan-2-yl)-1H-pyrazol-4-yl)pyrazolo[1,5-a]pyrazin-6-yl)-1H-pyrazol-1-yl)propane-1,3-diol], for which the IC50 against JAK2 lay in the range of 10 to 100 nM; against JAK1, 100 to 1000 nM; against JAK3, 1000 to 10000 nM; at Human Tyk2 kinase domain it was 100 to 1000 nM.
